According to patent publication US7745465B2, “Method of enhancing cellular production of molecular chaperone, hydroxylamine derivatives useful for enhancing the chaperone production and the preparation thereof” (CytRx Corporation, priority 1995, dated 2010):

Legend:
[1] = system: human skin grafted on severe combined immunodeficiency disease (SCID) mice; assay: UVB light induced skin injury in human skin grafted SCID mice; type: in vivo, mouse; settings: 5.0 mg/kg i.p. for 7 days
Experimental: Human skin tissues were grafted onto immunodeficiency (SCID) mice. The experimental protocol involved a treatment of one group of the mice with N-[2-hydroxy-3-(1-piperidinyl)propoxy]-3-piridinecarboxymidoyl chloride maleate (5.0 mg/kg i.p.) and the other with the solvent NaCl solution (300 μl) for 7 days. On day 8, both groups of mice were exposed to UVB light (100 mJ/cm^2) 24 hours subsequent to the exposure, skin biopsies were taken for histological (sections stained with hematoxylin and eosin), and immunohistological examinations (indirect immunoflourescence technique with monoclonal antibody, mAB).
(i) Human skin transplanted SCID mice treated by N-[2-hydroxy-3-(1-piperidinyl)propoxy]-3-piridinecarboximidoyl chloride maleate (5.0 mg/kg i.p.) or vehicle were exposed to UVB light (100 mJ/cm^2). After 24 h skin biopsies were taken for histological examination and for hsp72 determination using immunohistological and Western blotting techniques.

Male Sprague-Dawley rats = assay: Protection against cardiac ischaemia: survival after 5 minutes coronary occlusion and reperfusion; type: in vivo, rat
SPRD male rats = assay: Cardiac ischemia (LAD occlusion 5 min, reperfusion 10 min): ventricular tachycardia, fibrillation, survival; type: in vivo, rat
Experimental: Experiments were carried out in SPRD male rats. The animals were anaesthetized with Nembutal in a dose of 60 mg/kg/i.p. After opening the chest and pericardium, the LAD coronary artery was occluded for 5 minutes and then the incidence and duration of ventricular tachycardia and fibrillation in the reperfusion period (10 minutes) were investigated. Tissue samples were collected from the left and right ventricles.

[2] = 0.5-, 0.75-, 1.0 mg/kg i.v. 5 min. before the occlusion

## O=C(O)/C=C\C(=O)O.OC(CON=C(Cl)c1cccnc1)CN1CCCCC1 (stereo not shown) [N-[2-hydroxy-3-(1-piperidinyl)-propoxy]3-pyridinecarboximidoyl chloride maleate]
[1]; UVB 100 mJ/cm^2, listed as N-[2-hydroxy-3-(1-piperidinyl)propoxy]-3-piridinecarboximidoyl chloride maleate
  clinical signs of injuries due to UV exposure: prevented UVB light induced skin injury
[1]; UVB 100 mJ/cm^2, listed as N-[2-hydroxy-3-(1-piperidinyl)propoxy]-3-piridinecarboxymidoyl chloride maleate
  clinical signs of injuries due to UV exposure: clinical signs of injuries due to UV exposure could not be observed
Male Sprague-Dawley rats; 20 mg/kgbw p.o.
  Survival (%): 100%
Male Sprague-Dawley rats; i.v. 1 mg/kgbw, 5 min. before the occlusion, non-treated control 10
  Survival (%): 100%
SPRD male rats; 100 mg/kg p.o., all control animals (n=6) died
  survival of reperfusion after the 5 min. occlusion: survived the reperfusion
SPRD male rats; [2]
  mean duration of ventricular tachycardia: reduced significantly
  survival rate (preventing ventricular fibrillation): improved the survival rate
